What follows are molecules tested against CDK2/Cyclin E1 (Homo sapiens (Human), UniProt P24941) (assay: CDK2/Cyclin E1 HTRF enzyme activity assay). Settings: 1 mM ATP.
Type: biochemical
Experimental: CDK2/Cyclin E1 enzyme activity assays utilize full-length human CDK2 co-expressed as N-terminal GST-tagged protein with FLAG-Cyclin E1 in a baculovirus expression system (Carna Product Number 04-165). Assays are conducted in white 384-well polystyrene plates in a final reaction volume of 8 μL. CDK2/Cyclin E1 (0.25 nM) is incubated with compounds (40 nL serially diluted in DMSO) in the presence of ATP (50 μM or 1 mM) and 50 nM ULight™-labeled eIF4E-binding protein 1 (THR37/46) peptide (PerkinElmer) in assay buffer (containing 50 mM HEPES pH 7.5, 1 mM EGTA, 10 mM MgCl2, 2 mM DTT, 0.05 mg/mL BSA, and 0.01% Tween 20) for 60 minutes at room temperature. The reactions are stopped by the addition of EDTA and Europium-labeled anti-phospho-4E-BP1 antibody (PerkinElmer), for a final concentration of 15 mM and 1.5 nM, respectively. HTRF signals are read after 1 hour at room temperature on a PHERAstar FS plate reader (BMG Labtech). Data is analyzed with IDBS XLFit and GraphPad Prism 5.0 software using a three or four parameter dose response curve to determine IC50 for each compound.

IC50, ≤ 50 nM:
CNS(=O)(=O)c1ccc(Nc2ncc3c(n2)N([C@@H]2CCC[C@]2(C)O)C(=O)C32CC2)cc1 (relative stereo) [Example 1, 4-((7′-((cis)-2-hydroxy-2-methylcyclopentyl)-6′-oxo-6′,7′-dihydrospiro[cyclopropane-1,5′-pyrrolo[2,3-d]pyrimidin]-2′-yl)amino)-N-methylbenzenesulfonamide]
CNS(=O)(=O)c1ccc(Nc2ncc3c(n2)N([C@@H]2CCC[C@H]2C)C(=O)C32CC2)cc1 (relative stereo) [Example 2, N-methyl-4-((7′-((trans)-2-methylcyclopentyl)-6′-oxo-6′,7′-dihydrospiro[cyclopropane-1,5′-pyrrolo[2,3-d]pyrimidin]-2′-yl)amino)benzenesulfonamide]
CC1(NS(=O)(=O)c2ccc(Nc3ncc4c(n3)N([C@@H]3CCC[C@]3(C)O)C(=O)C43CC3)cc2)CNC1 (relative stereo) [Example 3, 4-((7′-((cis)-2-hydroxy-2-methylcyclopentyl)-6′-oxo-6′,7′-dihydrospiro[cyclopropane-1,5′-pyrrolo[2,3-d]pyrimidin]-2′-yl)amino)-N-(3-methylazetidin-3-yl)benzenesulfonamide]
CNS(=O)(=O)c1ccc(Nc2ncc3c(n2)N([C@@H]2CCC[C@@]2(C)O)C(=O)C32CC2)c(F)c1 (relative stereo) [Example 11, 3-fluoro-4-((7′-((trans)-2-hydroxy-2-methylcyclopentyl)-6′-oxo-6′,7′-dihydrospiro[cyclopropane-1,5′-pyrrolo[2,3-d]pyrimidin]-2′-yl)amino)-N-methylbenzenesulfonamide]
[2H]C([2H])([2H])NS(=O)(=O)c1ccc(Nc2ncc3c(n2)N([C@@H]2CCC[C@@]2(C)O)C(=O)C32CC2)cc1 (single isomer, unassigned) [Example 9, 4-((7′-((trans)-2-hydroxy-2-methylcyclopentyl)-6′-oxo-6′,7′-dihydrospiro [cyclopropane-1,5′-pyrrolo[2,3-d]pyrimidin]-2′-yl)amino)-N-(methyl-d)benzene sulfonamide]
CC[C@@H](N1C(=O)C2(CC2)c2cnc(Nc3ccc(S(=O)(=O)NC)cc3)nc21)C(F)(F)F [Example 4, (R)—N-methyl-4-((6′-oxo-7′-(1,1,1-trifluorobutan-2-yl)-6′,7′-dihydrospiro[cyclopropane-1,5′-pyrrolo[2,3-d]pyrimidin]-2′-yl)amino)benzenesulfonamide]
CC1CCCC1N1C(=O)C2(CC2)c2cnc(Nc3ccc(S(=O)(=O)N[C@@H]4CCCN(C)C4)cc3)nc21 (stereo partly drawn) [Example 5, 4-((7′-(2-methylcyclopentyl)-6′-oxo-6′,7′-dihydrospiro[cyclopropane-1,5′-pyrrolo[2,3-d]pyrimidin]-2′-yl)amino)-N—((R)-1-methylpiperidin-3-yl) benzenesulfonamide]
CNS(=O)(=O)c1ccc(Nc2ncc3c(n2)N([C@@H]2CCC[C@@H](O)C2)C(=O)C32CC2)cc1 [Example 6, 4-((7′-((1R,3R)-3-hydroxycyclohexyl)-6′-oxo-6′,7′-dihydrospiro [cyclopropane-1,5′-pyrrolo[2,3-d]pyrimidin]-2′-yl)amino)-N-methylbenzene sulfonamide]
[2H]C([2H])([2H])NS(=O)(=O)c1ccc(Nc2ncc3c(n2)N([C@@H]2CCC[C@@H](O)C2)C(=O)C32CC2)cc1 [Example 7, 4-((7′-((1R,3R)-3-hydroxycyclohexyl)-6′-oxo-6′,7′-dihydrospiro[cyclopropane-1,5′-pyrrolo[2,3-d]pyrimidin]-2′-yl)amino)-N-(methyl-d)benzenesulfonamide]
[2H]C([2H])([2H])NS(=O)(=O)c1ccc(Nc2ncc3c(n2)N([C@@H](C)C2CC2)C(=O)C32CC2)cc1 [Example 8, (S)-4-((7′-(1-cyclopropylethyl)-6′-oxo-6′,7′-dihydrospiro[cyclopropane-1,5′-pyrrolo[2,3-d]pyrimidin]-2′-yl)amino)-N-(methyl-d)benzenesulfonamide]
